In assay [1] the target is HBO-KAT7 (Homo sapiens, UniProt O95251). As to the kind of experiment: Acetyltransferase biochemical assay (AlphaScreen), KAT7. (In general: Bead proximity is the source of the signal in Alpha formats.)
The target of assay [2] is MOZ-KAT6A (Homo sapiens, UniProt Q92794, A567V). Kind of assay: Acetyltransferase biochemical assay (AlphaScreen), KAT6A.
For assay [3], the target named is TIP60-KAT5 (Homo sapiens, UniProt Q92993). As to the kind of experiment: Acetyltransferase biochemical assay (AlphaScreen), KAT5.
Chain of TIP60-KAT5 (Q92993 with tags, fused parts or gaps isoform Q92993-2): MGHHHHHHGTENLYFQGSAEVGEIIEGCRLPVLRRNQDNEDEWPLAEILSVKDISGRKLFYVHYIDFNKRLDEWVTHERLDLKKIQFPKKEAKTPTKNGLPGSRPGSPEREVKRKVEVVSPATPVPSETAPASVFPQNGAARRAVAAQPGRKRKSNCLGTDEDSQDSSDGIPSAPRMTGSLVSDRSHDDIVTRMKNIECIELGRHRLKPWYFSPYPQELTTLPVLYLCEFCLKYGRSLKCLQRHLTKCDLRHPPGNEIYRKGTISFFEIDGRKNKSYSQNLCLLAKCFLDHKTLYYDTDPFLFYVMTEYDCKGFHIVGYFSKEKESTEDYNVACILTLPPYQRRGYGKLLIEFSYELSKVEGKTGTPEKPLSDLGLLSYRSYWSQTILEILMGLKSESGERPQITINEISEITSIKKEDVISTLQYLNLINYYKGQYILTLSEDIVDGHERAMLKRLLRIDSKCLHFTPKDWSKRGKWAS

Bounds are passed on as bounds.

Chain of HBO-KAT7 (O95251 with tags, fused parts or gaps): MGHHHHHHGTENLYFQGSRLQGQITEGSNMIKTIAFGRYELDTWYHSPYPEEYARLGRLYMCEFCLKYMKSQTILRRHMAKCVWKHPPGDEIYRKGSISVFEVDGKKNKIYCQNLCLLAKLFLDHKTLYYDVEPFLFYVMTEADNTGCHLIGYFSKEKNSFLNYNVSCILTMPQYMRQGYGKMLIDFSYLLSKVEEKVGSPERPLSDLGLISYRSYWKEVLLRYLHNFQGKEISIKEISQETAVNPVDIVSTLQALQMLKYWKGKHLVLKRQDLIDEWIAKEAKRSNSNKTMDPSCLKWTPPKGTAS
Chain of MOZ-KAT6A (Q92794 with tags, fused parts or gaps A567V): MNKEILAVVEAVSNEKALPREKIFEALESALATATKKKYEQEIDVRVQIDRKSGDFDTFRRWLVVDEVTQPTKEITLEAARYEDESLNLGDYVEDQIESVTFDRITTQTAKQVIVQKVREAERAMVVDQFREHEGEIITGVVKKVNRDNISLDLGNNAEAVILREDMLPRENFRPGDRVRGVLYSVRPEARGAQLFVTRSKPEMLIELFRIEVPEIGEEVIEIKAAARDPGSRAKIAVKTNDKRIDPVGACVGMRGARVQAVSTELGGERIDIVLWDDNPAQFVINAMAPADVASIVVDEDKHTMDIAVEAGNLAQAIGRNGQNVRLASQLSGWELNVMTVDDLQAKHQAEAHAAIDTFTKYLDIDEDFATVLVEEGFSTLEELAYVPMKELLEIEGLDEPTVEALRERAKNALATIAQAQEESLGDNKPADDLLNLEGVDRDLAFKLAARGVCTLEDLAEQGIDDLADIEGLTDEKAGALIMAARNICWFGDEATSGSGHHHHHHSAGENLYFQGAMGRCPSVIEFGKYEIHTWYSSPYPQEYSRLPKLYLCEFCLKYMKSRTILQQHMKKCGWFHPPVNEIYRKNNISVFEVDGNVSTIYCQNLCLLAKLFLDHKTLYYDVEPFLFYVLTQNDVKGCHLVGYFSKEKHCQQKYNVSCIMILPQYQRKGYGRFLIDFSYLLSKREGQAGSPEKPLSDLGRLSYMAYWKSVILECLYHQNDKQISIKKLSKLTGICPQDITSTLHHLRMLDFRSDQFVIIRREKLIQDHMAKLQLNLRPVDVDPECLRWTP

`Cc1ccc(Br)cc1S(=O)(=O)Nc1noc2cccc(Cl)c12` [Example 114, 5-Bromo-N-(4-chlorobenzo[d]isoxazol-3-yl)-2-methylbenzenesulfonamide]: the IC50 in assay [1] came out at 41.6 µM; in assay [2], 29.3 µM; in assay [3], 59.4 µM.

Take `COc1ccc(C(C)C)cc1S(=O)(=O)Nc1noc2ccccc12` [Example 49, N-(benzo[d]isoxazol-3-yl)-5-isopropyl-2-methoxy benzene sulfonamide]: the IC50 in assay [1] is 77.8 µM; in assay [2] it was 8.13 µM; in assay [3], 74.6 µM.

For `COc1c(S(=O)(=O)Nc2noc3cccc(Cl)c23)ccc(Cl)c1Cl` [Example 3, 3,4-dichloro-N-(4-chlorobenzo[d]isoxazol-3-yl)-2-methoxy benzenesulfonamide], the IC50 in assay [1] came out at 23.2 µM; in assay [2], 23.8 µM; in assay [3] it was 65.1 µM.

On to `COc1ccc(Oc2ccccc2)cc1S(=O)(=O)Nc1noc2cccc(OC)c12` [Example 99, 2-Methoxy-N-(4-methoxybenzo[d]isoxazol-3-yl)-5-phenoxybenzenesulfonamide], for which the figures for the IC50 in assay [1], in assay [2] and in assay [3] were 5.74 µM, 2.1 µM and 9.7 µM, respectively.

Consider `COc1ccc(C(F)(F)F)c(OC)c1S(=O)(=O)Nc1noc2cccc(OC)c12` [Example 101, 2,6-Dimethoxy-N-(4-methoxybenzo[d]isoxazol-3-yl)-3-(trifluoromethyl)benzenesulfonamide], for which the figures for the IC50 in assay [1], in assay [2] and in assay [3] were 32.8 µM, 3.8 µM and 98.2 µM, respectively.

Consider `CCc1ccc(OC)c(S(=O)(=O)Nc2noc3cc(-c4ccccc4)ccc23)c1` [Example 179, 5-Ethyl-2-methoxy-N-(6-phenylbenzo[d]isoxazol-3-yl)benzenesulfonamide], for which the IC50 in assay [1] turned out to be 13.5 µM; in assay [2] it was 2.86 µM; in assay [3], 32.1 µM.

For `CCc1ccc(OC)c(S(=O)(=O)Nc2noc3ccc(CN)cc23)c1` [Example 226], the IC50 in assay [1] came out at 38 µM; in assay [2], 10.8 µM; in assay [3], 80.3 µM.

In the case of `CCc1ccc(OC)c(S(=O)(=O)Nc2noc3ccc(-c4cnn(C)c4)cc23)c1` [Example 237, 5-Ethyl-2-methoxy-N-(5-(1-methyl-1H-pyrazol-4-yl)benzo[d]isoxazol-3-yl)benzenesulfonamide], the figures for the IC50 in assay [1], in assay [2] and in assay [3] were 18 µM, 4.95 µM and above 125 µM, respectively.

As to `Cc1c(Cl)cccc1S(=O)(=O)Nc1noc2ccccc12` [Example 59, N-(benzo[d]isoxazol-3-yl)-3-chloro-2-methylbenzene-sulfonamide], the half-maximal inhibitory concentration (IC50) in assay [1] is above 125 µM; in assay [2], 49.4 µM; in assay [3], above 125 µM.

For `CCc1ccc(OC)c(S(=O)(=O)Nc2noc3ccc(CNC(=O)OC)cc23)c1` [Example 227, Methyl ((3-((5-ethyl-2-methoxyphenyl)sulfonamido)benzo[d]isoxazol-5-yl)methyl) carbamate], the figures for the IC50 in assay [1], in assay [2] and in assay [3] were 63.1 µM, 41.5 µM and above 125 µM, respectively.

On to `COc1ccc(-c2ccno2)cc1S(=O)(=O)Nc1noc2ccccc12` [Example 55, N-(benzo[d]isoxazol-3-yl)-5-(isoxazol-5-yl)-2-methoxybenzene sulfonamide], for which the IC50 in assay [1] is above 125 µM; in assay [2] it was 103 µM; in assay [3], above 125 µM.

`COc1cccc(OC)c1S(=O)(=O)Nc1noc2c(Br)cc(C)cc12` [Example 239]: the IC50 in assay [1] is 3 µM; in assay [2], 2.13 µM; in assay [3], 17.4 µM.

Turning to `COc1ccc(-c2cc(OC)c3c(NS(=O)(=O)c4c(OC)cccc4OC)noc3c2)cn1` [Example 247, 2,6-Dimethoxy-N-(4-methoxy-6-(6-methoxypyridin-3-yl)benzo[d]isoxazol-3-yl)benzenesulfonamide], the IC50 came to 5.9 µM in assay [1], 3.48 µM in assay [2] and 96.6 µM in assay [3].

On to `CCc1ccc(OC)c(S(=O)(=O)Nc2noc3cccc(-c4cncnc4)c23)c1` [Example 203, 5-Ethyl-2-methoxy-N-(4-(pyrimidin-5-yl)benzo[d]isoxazol-3-yl)benzenesulfonamide], for which the values for the IC50 in assay [1], in assay [2] and in assay [3] were 23.4 µM, 22.6 µM and 74.3 µM, respectively.

For `O=S(=O)(Nc1noc2cccc(Cl)c12)c1cccc(-c2ccccc2)c1` [Example 43, N-(4-chlorobenzo [d]isoxazol-3-yl)-[1,1-biphenyl]-3-sulfonamide], the IC50 in assay [1] stood at 12.9 µM; in assay [2] it was 5.97 µM; in assay [3], 23 µM.

For the compound `COc1cccc(OC)c1S(=O)(=O)Nc1noc2ccc(C)cc12` [Example 104, 2,6-Dimethoxy-N-(5-methylbenzo[d]isoxazol-3-yl)benzenesulfonamide], the figures for the concentration for half-maximal inhibition (IC50) in assay [1], in assay [2] and in assay [3] were 3.13 µM, 0.786 µM and 28.1 µM, respectively.

With `CCc1ccc(S(=O)(=O)Nc2noc3ccccc23)c(OC)c1` [Example 182], the IC50 in assay [1] was determined as 15.6 µM; in assay [2] it was 15.2 µM; in assay [3] it was 65.6 µM.

Take `O=S(=O)(Nc1noc2ccccc12)c1ccc(-c2ccccc2)cc1` [Example 69, N-(benzo[d]isoxazol-3-yl)-[1,1-biphenyl]-4-sulfonamide]: the 50% inhibitory concentration (IC50) in assay [1] was found to be 94.1 µM; in assay [2], 42.9 µM; in assay [3] it was 124 µM.

As to `COc1cc2c(c(OC)c1S(=O)(=O)Nc1noc3cccc(OC)c13)CCC2` [Example 106, 4,6-Dimethoxy-N-(4-methoxybenzo[d]isoxazol-3-yl)-2,3-dihydro-1H-indene-5-sulfonamide], the IC50 is 3.98 µM in assay [1], 0.782 µM in assay [2] and 14.3 µM in assay [3].

Regarding `COc1cccc2onc(NS(=O)(=O)c3c(C)ccc4cccnc34)c12` [Example 77, N-(4-methoxybenzo[d]isoxazol-3-yl)-7-methyl quinoline-8-sulfonamide], the half-maximal inhibitory concentration (IC50) in assay [1] was found to be 12 µM; in assay [2] it was 10.8 µM; in assay [3], 51.8 µM.

For `COc1cccc2onc(NS(=O)(=O)c3ccccc3)c12` [Example 90, N-(4-Methoxybenzo[d]isoxazol-3-yl)benzenesulfonamide], the values for the IC50 in assay [1], in assay [2] and in assay [3] were 18.9 µM, 4.78 µM and 90.7 µM, respectively.

On to `O=S(=O)(Nc1noc2cccc(Cl)c12)c1ccc(Br)cc1OC(F)(F)F` [Example 32, 4-bromo-N-(4-chlorobenzo[d]isoxazol-3-yl)-2-(trifluoromethoxy) benzenesulfonamide], for which the concentration for half-maximal inhibition (IC50) in assay [1] stood at 14.9 µM; in assay [2], 31.1 µM; in assay [3], 56 µM.

`COc1cc(C)c(C(C)C)cc1S(=O)(=O)Nc1noc2cccc(Cl)c12` [Example 37, N-(4-chlorobenzo [d]isoxazol-3-yl)-5-isopropyl-2-methoxy-4-methylbenzenesulfonamide]: the IC50 in assay [1] is 114 µM; in assay [2] it was 24.8 µM; in assay [3] it was above 125 µM.

Consider `COC(=O)c1ccc(Cl)cc1S(=O)(=O)Nc1noc2cccc(Cl)c12` [Example 115, Methyl 4-chloro-2-(N-(4-chlorobenzo[d]isoxazol-3-yl)sulfamoyl)benzoate], for which the 50% inhibitory concentration (IC50) was 95.5 µM in assay [1], 29 µM in assay [2] and 23.7 µM in assay [3].

Turning to `O=S(=O)(Nc1noc2cccc(Cl)c12)c1ccccc1F` [Example 30, N-(4-chlorobenzo [d]isoxazol-3-yl)-2-fluorobenzenesulfonamide], the IC50 in assay [1] is 11.5 µM; in assay [2] it was 89.5 µM; in assay [3], above 125 µM.

For the compound `CCc1ccc(OC)c(S(=O)(=O)Nc2noc3cccc(COC)c23)c1` [Example 110, 5-Ethyl-2-methoxy-N-(4-(methoxymethyl)benzo [d]isoxazol-3-yl)benzenesulfonamide], the results for the IC50 in assay [1], in assay [2] and in assay [3] were 17.5 µM, 7.89 µM and above 125 µM, respectively.

Consider `CCc1ccc(OC)c(S(=O)(=O)Nc2noc3c(C(=O)N(C)C)cccc23)c1` [Example 185, 3-(5-Ethyl-2-methoxyphenylsulfonamido)-N,N-dimethylbenzo[d]isoxazole-7-carboxamide], for which the results for the IC50 in assay [1], in assay [2] and in assay [3] were 60.7 µM, 105 µM and above 125 µM, respectively.

As for `Cc1ccc(S(=O)(=O)Nc2noc3cccc(Cl)c23)cc1Cl` [Example 31, 3-chloro-N-(4-chlorobenzo[d]isoxazol-3-yl)-4-methylbenzenesulfonamide], the half-inhibitory concentration (IC50) was 53.6 µM in assay [1], 36.1 µM in assay [2] and above 125 µM in assay [3].

Turning to `Cn1c(=O)oc2cc(S(=O)(=O)Nc3noc4cccc(Cl)c34)ccc21` [Example 13, N-(4-chlorobenzo [d]isoxazol-3-yl)-3-methyl-2-oxo-2,3-dihydrobenzo[d]oxazole-6-sulfonamide], the IC50 in assay [1] turned out to be 63.8 µM; in assay [2] it was 63.9 µM; in assay [3] it was 120 µM.

As to `O=S(=O)(Nc1noc2cccc(Cl)c12)c1cccc2c1OCCO2` [Example 39, N-(4-chlorobenzo [d]isoxazol-3-yl)-2,3-dihydrobenzo[b][1,4]dioxine-5-sulfonamide], the IC50 was 10.1 µM in assay [1], 38.2 µM in assay [2] and above 125 µM in assay [3].

Regarding `Cc1ccc(S(=O)(=O)Nc2noc3cccc(Cl)c23)cc1` [Example 27, N-(4-chlorobenzo [d]isoxazol-3-yl)-4-methylbenzenesulfonamide], the 50% inhibitory concentration (IC50) in assay [1] is 32.1 µM; in assay [2] it was 71.5 µM; in assay [3], above 125 µM.

Regarding `COc1cc(Br)ccc1S(=O)(=O)Nc1noc2ccccc12` [Example 141], the 50% inhibitory concentration (IC50) in assay [1] is 24.3 µM; in assay [2], 39.6 µM; in assay [3], above 125 µM.

Take `CCc1ccc(OC)c(S(=O)(=O)Nc2noc3ccc(CO)cc23)c1` [Example 229]: the 50% inhibitory concentration (IC50) in assay [1] is 115 µM; in assay [2] it was 85 µM; in assay [3], above 125 µM.

The IC50 is the concentration that gives 50% inhibition.

For the origin of these results see patent US12365655B2, “Compounds” (CTXT PTY LTD, priority 2018, dated 2025).
